Structures are written as SMILES.

One test deals with T1, Menin-MLL1 (Homo sapiens, UniProt O00255).
T1 construct: Menin (2-610) isform2; purchased ChemPartner 2020111101
T1 sequence (O00255 2-610): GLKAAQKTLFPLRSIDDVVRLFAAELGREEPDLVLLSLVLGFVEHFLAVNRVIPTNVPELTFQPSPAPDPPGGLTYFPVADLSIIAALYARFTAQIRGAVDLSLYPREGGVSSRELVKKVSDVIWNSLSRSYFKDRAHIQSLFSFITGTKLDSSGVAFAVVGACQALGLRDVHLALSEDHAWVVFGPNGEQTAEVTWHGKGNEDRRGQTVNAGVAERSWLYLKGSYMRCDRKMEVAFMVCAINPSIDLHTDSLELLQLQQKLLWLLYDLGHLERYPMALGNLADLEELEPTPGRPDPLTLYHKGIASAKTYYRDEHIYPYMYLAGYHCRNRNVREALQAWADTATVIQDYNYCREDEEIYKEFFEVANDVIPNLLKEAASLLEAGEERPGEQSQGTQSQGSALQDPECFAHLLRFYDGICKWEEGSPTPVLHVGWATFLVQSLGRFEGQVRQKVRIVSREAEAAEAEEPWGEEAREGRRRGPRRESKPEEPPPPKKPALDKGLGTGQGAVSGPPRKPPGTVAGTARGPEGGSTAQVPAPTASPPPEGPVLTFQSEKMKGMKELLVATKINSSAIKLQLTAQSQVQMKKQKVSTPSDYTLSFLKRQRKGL
Briefly: Menin-MLL1 inhibition assay (fluorescence polarization, Menin protein + FAM-MLL peptide). The conditions noted are these: Menin (2-610) isoform 2, FAM-labelled MLL peptide, mP readout; read-out: Biochemical assay Menin-MLL1 IC50. The test is classed as binding. How it is done: 1× assay bu9ffer (Tris 7.5 50 mM, NaCl 50 mM, DTT 1 mM, Tween-20 0.01%) was prepared and test compounds solution (10 mM in DMSO, Sigma, Cat. No. 34869) were transferred to assay plate (384-well plate, Perkin Elmer, Cat. No. 6007279) by Echo. The final fraction of DMSO is 1%. 20 nM of Menin protein (Menin (2-610) isform2, ChemPartner, Cat. No. 2020111101) in 1× assay buffer was added to prepare 2× enzyme solution. Then 10 nM of MLL-peptide (Ac-SRWRFPARPGTGRR-Ahx-Ahx-K(FAM)-NH2, GL Biochem (Shanghai)), Cat. No. 833831/202009220104) in 1× assay buffer was added to prepare 2× substrate solution. 10 μL of 2× enzyme solution was transferred to assay plate or 10 μL of 1× assay buffer for low control group. 10 μL of 2× substrate solution was added to each well to start reaction. mP data on Envision (Ex480/Em535(s), Em535(p)) was collected.
Compound potencies were determined by first calculating % inhibition at each compound concentration according to equation 1:
Inhibition %=(Max−Signal)/(Max−Min)*100 (Equation 1)
Y=Bottom+(Top-Bottom)/(1+(IC50/X)[…]), where Y is % inhibition and X is compound concentration (Equation 2)

In the next test the test system is MV-4-11 cells. Briefly: Cell proliferation assay (CellTiter-Glo), MV-4-11. In kind it is cell-based, human. The conditions noted are these: Homo sapiens, MV4-11, 96 h; MV-4-11 (MLL-AF4), 4 days incubation; read-out: Cell antiproliferation assay MV-4-11 IC50. The protocol: The antiproliferative activity of test compounds was assessed in human leukemia cell lines. The cell line MV4-11, MOLM13 and OCI-AML3, which expresses the MLL fusion protein MLL-AF4, MLL-AF9 and carry the NPM1c gene mutation, respectively, were tested. HL-60 was used as a control cell line containing two MLL wildtype alleles in order to exclude compounds that display general cytotoxic effect. MV4-11 cells were cultured in IMDM supplemented with 10% FBS, MOLM13 and OCI-AML3 cells were cultured in RPMI1640 supplemented with 20% FBS, and HL-60 cells were cultured in IMDM supplemented with 20% FBS. Corresponding cells (MV4-11, MOLM13, OCI-AML3 or HL-60 cell line) were seeded in 100 uL medium per well in 96-well plate (white wall with clear bottom, tissue culture treated, Corning, Cat. No. CLS3903; Lot.No. 30419025). Plates were placed in the CO2 incubator overnight. Compounds solution (2 mM starting, 4-fold serial dilution) were prepared and added to the wells containing 100 μL of the culture medium with HPD300 according to the plate map and centrifuge at 1000 rpm for 1 minutes (200-fold dilution totally). MV4-11, MOLM13, OCI-AML3 and HL-60 cells were incubated with the compounds for 4, 12, 5 and 4 days, respectively, under 5% CO2 at 37° C., respectively. 100 μL of CellTiter-Glo reagent (Promega, Cat. No. G7573, Lot. No. 0000416710) was added to the assay plate by Multidrop Combi instrument, contents were mixed for 10 minutes on an orbital shaker to induce cell lysis. After incubation at room temperature for 10 mins, clear bottom with white back seal was pasted and luminescence with Envision was read.
(ATP-based viability assays read luminescence as a measure of living cells.)

On to `CCN(C(=O)c1cc(F)ccc1Oc1nncnc1N1CC2(CCN(C(=O)[C@@H]3NCC[C@H]3C(F)F)CC2)C1)C(C)C` [Example 99b, 2-((5-(7-((2R,3R)-3-(difluoromethyl)pyrrolidine-2-carbonyl)-2,7-diazaspiro[3.5]nonan-2-yl)-1,2,4-triazin-6-yl)oxy)-N-ethyl-5-fluoro-N-isopropylbenzamide], for which the IC50 on Menin-MLL1 came to 43 nM; in the test on MV-4-11 cells, 1930 nM.

For `CCN(C(=O)c1cc(F)ccc1Oc1cncnc1N1CC2(CCN(C(=O)[C@H]3NCC[C@H]3O)CC2)C1)C(C)C` [Example 7], the results for the IC50 on Menin-MLL1 and in the test on MV-4-11 cells were 7.5 nM and 220 nM, respectively.

On to `CCN(C(=O)c1ccccc1Oc1cncnc1N1CC2(CCN(C(=O)[C@@H]3C[C@@H](F)CN3)CC2)C1)C(C)C` [Example 36], for which the IC50 at Menin-MLL1 came to 4 nM; in the test with MV-4-11 cells, 66 nM.

Turning to `CCN(C(=O)c1cc(F)ccc1Oc1nncnc1N1CC2(CCN(C(=O)[C@@H]3NC[C@@H](C)[C@H]3C)CC2)C1)C(C)C` [Example 93], the IC50 at Menin-MLL1 was 24.8 nM; in the test on MV-4-11 cells, 457 nM.

Regarding `CCN(C(=O)c1cc(F)ccc1Oc1cncnc1N1CC2(CCN(C(=O)[C@@H]3C[C@@H](F)CN3)C2)C1)C(C)C` [Example 37], the IC50 on Menin-MLL1 came out at 15.4 nM.

Regarding `CC(C)n1ncc(Cl)c1-c1cc(F)ccc1Oc1nncnc1N1CC2(CCN(C(=O)[C@@H]3C[C@@H](F)CN3)CC2)C1` [Example 75], the figures for the IC50 at Menin-MLL1 and with MV-4-11 cells were 5.8 nM and 40.6 nM, respectively.

On to `CCN(C(=O)c1cc(F)ccc1Oc1cncnc1N1CC2(CCN(C(=O)[C@@H]3C[C@@H](OC(F)F)CN3)CC2)C1)C(C)C` [Example 10], for which the figures for the IC50 at Menin-MLL1 and in the test with MV-4-11 cells were 8.3 nM and 238 nM, respectively.

With `O=C([C@H]1NC[C@@H]2CCC[C@@H]21)N1CCC2(CC1)CN(c1ncnnc1Oc1ccc(F)cc1-c1ccc(=O)[nH]c1C1CC1)C2` [Example 106], the IC50 was determined as 2 nM at Menin-MLL1 and 9.4 nM in the test on MV-4-11 cells.

`CCN(C(=O)c1cc(F)ccc1Oc1cncnc1N1CC2(CCN(C(=O)[C@@H]3C[C@@H](O)CN3)CC2)C1)C(C)C` [Example 5]: the IC50 at Menin-MLL1 was found to be 7 nM; in the test with MV-4-11 cells, 440 nM.

For the molecule `CC(C)N(C(=O)c1cc(F)ccc1Oc1nncnc1N1CC2(CCN(C(=O)[C@H]3NCC[C@H]3C)CC2)C1)C(C)C` [Example 76], the IC50 came out at 3.7 nM at Menin-MLL1 and 16.7 nM in the test on MV-4-11 cells.

For `CCN(C(=O)c1cc(F)ccc1Oc1cncnc1N1CC2(CCN(C(=O)[C@@H]3COCCN3)CC2)C1)C(C)C` [Example 26], the IC50 worked out at 10.2 nM on Menin-MLL1 and 647 nM in the test on MV-4-11 cells.

As to `CCN(C(=O)c1cc(F)ccc1Oc1cncnc1N1CC2(CCN(C(=O)[C@@H]3CCCCN3)CC2)C1)C(C)C` [Example 4], the IC50 at Menin-MLL1 came out at 5 nM; in the test with MV-4-11 cells it was 33.1 nM.

For the molecule `CCN(C(=O)c1cc(F)ccc1Oc1cncnc1N1CC2(CCN(C(=O)[C@@H]3C[C@@H](S(C)(=O)=O)CN3)CC2)C1)C(C)C` [Example 15], the IC50 on Menin-MLL1 turned out to be 55.2 nM.

As to `CCN(C(=O)c1cc(F)ccc1Oc1cncnc1N1CC2(CCN(C(=O)[C@H]3NCC[C@@H]3O)CC2)C1)C(C)C` [Example 8], the IC50 on Menin-MLL1 is 5.5 nM; in the test with MV-4-11 cells, 332 nM.

With `CC[C@@H]1CCN[C@H]1C(=O)N1CCC2(CC1)CN(c1ncnnc1Oc1ccc(F)cc1C(=O)N(CC)C(C)C)C2` [Example 71], the results for the IC50 on Menin-MLL1 and in the test on MV-4-11 cells were 16 nM and 1250 nM, respectively.

`CO[C@H]1CCN[C@@H]1C(=O)N1CCC2(CC1)CN(c1ncnnc1Oc1ccc(F)cc1-c1ccc(C#N)cc1C1CC1)C2` [Example 96]: the values for the IC50 on Menin-MLL1 and in the test with MV-4-11 cells were 4 nM and 5.6 nM, respectively.

Take `C[C@@H]1COCCN1C(=O)c1cc(F)ccc1Oc1cncnc1N1CC2(CCN(C(=O)[C@@H]3C[C@@H](F)CN3)CC2)C1` [Example 51]: the results for the IC50 on Menin-MLL1 and in the test on MV-4-11 cells were 4.3 nM and 221 nM, respectively.

Turning to `CCN(C(=O)c1cc(F)ccc1Oc1cncnc1N1CC2(CCN(C(=O)[C@@H]3CCCN3)CC2)C1)C(C)C` [Example 21], the IC50 at Menin-MLL1 stood at 5.8 nM; with MV-4-11 cells, 42.2 nM.

Take `CCN(C(=O)c1cc(F)ccc1Oc1nncnc1N1CC2(CCN(C(=O)[C@H]3NCC[C@@H]3C3CC3)CC2)C1)C(C)C` [Example 100a]: the IC50 came to 2.7 nM on Menin-MLL1 and 6.9 nM in the test with MV-4-11 cells.

In the case of `CC1(C)[C@@H]2[C@@H](C(=O)N3CCC4(CC3)CN(c3ncnnc3Oc3ccc(F)cc3-c3ccc(C#N)nc3C3CC3)C4)NC[C@@H]21` [Example 95], the IC50 on Menin-MLL1 stood at 2.5 nM; in the test with MV-4-11 cells, 5.5 nM.

As for `O=C([C@H]1NC[C@@H]2CCC[C@@H]21)N1CCC2(CC1)CN(c1ncnnc1Oc1ccc(F)cc1-c1cccnc1C1CC1)C2` [Example 103], the IC50 stood at 4.4 nM at Menin-MLL1 and 1.5 nM with MV-4-11 cells.

Turning to `CC(C)n1ncnc1-c1cc(F)ccc1Oc1cncnc1N1CC2(CCN(C(=O)[C@@H]3C[C@@H](F)CN3)CC2)C1` [Example 43], the IC50 is 4.8 nM at Menin-MLL1 and 170 nM with MV-4-11 cells.

Turning to `COc1ccc(-c2cc(F)ccc2Oc2nncnc2N2CC3(CCN(C(=O)[C@H]4NC[C@@H]5CCC[C@@H]54)CC3)C2)c(C2CC2)n1` [Example 107], the IC50 at Menin-MLL1 and in the test on MV-4-11 cells was 2.4 nM in each case.

As to `CCN(C(=O)c1cc(F)ccc1Oc1cncnc1N1CCC2(CC1)CN(C(=O)[C@@H]1C[C@@H](F)CN1)C2)C(C)C` [Example 46], the IC50 came to 7.7 nM on Menin-MLL1 and 494 nM in the test on MV-4-11 cells.

In the case of `CCN(C(=O)c1cc(F)ccc1Oc1cncnc1N1CC2(CCN(C(=O)[C@@H]3C[C@]4(CN3)CC4(F)F)CC2)C1)C(C)C` [Example 23], the values for the IC50 at Menin-MLL1 and in the test on MV-4-11 cells were 8.7 nM and 127 nM, respectively.

Regarding `CCN(C(=O)c1cc(F)ccc1Oc1nncnc1N1CC2(CCN(C(=O)[C@H]3NC[C@H]4CC(F)(F)C[C@H]43)CC2)C1)C(C)C` (single isomer, unassigned) [Example 98a], the figures for the IC50 on Menin-MLL1 and with MV-4-11 cells were 5.4 nM and 333 nM, respectively.

With `CCN(C(=O)c1cc(F)ccc1Oc1cncnc1N1CC2(CCN(C(=O)[C@@H]3C[C@H](NS(C)(=O)=O)CN3)CC2)C1)C(C)C` [Example 16], the IC50 on Menin-MLL1 turned out to be 22.3 nM.

As for `CCN(C(=O)c1cc(F)ccc1Oc1nncnc1N1CC2(CCN(C(=O)C3NC[C@H]4CC(F)(F)C[C@@H]34)CC2)C1)C(C)C` (single isomer, unassigned) [Example 98c], the IC50 on Menin-MLL1 amounted to 44.5 nM.

For the molecule `CCN(C(=O)c1cc(F)ccc1Oc1cncnc1N1CC2(CCN(C(=O)[C@@H]3CSCN3)CC2)C1)C(C)C` [Example 52], the IC50 at Menin-MLL1 turned out to be 21 nM.

As for `CCN(C(=O)c1cc(F)ccc1Oc1cncnc1N1CC2(CCN(C(=O)[C@@H]3C[C@]4(COC)CC4N3)CC2)C1)C(C)C` (some centres unmarked) [Example 13], the IC50 on Menin-MLL1 amounted to 16.7 nM.

For `CCN(C(=O)c1cc(F)ccc1Oc1cncnc1N1CC2(CCN(C(=O)[C@@H]3CC(C)(O)CN3)CC2)C1)C(C)C` (some centres unmarked) [Example 14], on Menin-MLL1, the IC50 worked out at 9.2 nM.

Turning to `CCN(C(=O)c1cc(F)ccc1Oc1cncnc1N1CC2(CCN(C(=O)[C@@H]3C[C@@H](NS(C)(=O)=O)CN3)CC2)C1)C(C)C` [Example 18], the IC50 at Menin-MLL1 stood at 13.5 nM.

Source of the values: patent publication US20240317748A1, “CARBONYL SUBSTITUTED DIAZASPIRO COMPOUNDS AND ITS USE” (BIONOVA PHARMACEUTICALS (SHANGHAI) LIMITED, priority 2021, published 2024).
